We go through 26 molecules from patent publication US11926614B2, “1,2,4-triazole derivatives as tankyrase inhibitors” (priority 2018, dated 2024).

For orientation: IC50 means the point on the concentration scale where inhibition reaches its midpoint.

Where two headings read alike, the source gives them in different places.

In assay [1] the target is TNKS2 (Homo sapiens (Human), UniProt Q9H2K2). The experiment in a line: Biochemical IC50 TNKS2. An excerpt:
(§1) XLfit (idbs) was used to determine the IC50-values in inhibition experiments. The following formula was chosen to fit the data points (Langmuir Binding Isotherm): fit=((A+(B*x))+4(C−B)*(1−exp((−1*D)*x)))/D)), res=(y−fit)

The test system of assay [2] is HEK293. In words: Cellular IC50 HEK293. The assay is classed as cell-based.
Excerpt: as §1

The mark [3] stands for this setting: read-out: Biochemical IC50 TNKS2.
Setting [4] is: Homo sapiens, HEK293, HEK293; read-out: Cellular IC50 HEK293.
The mark [5] stands for this setting: Homo sapiens, HEK293, read-out: Cellular IC50 HEK293.
The mark [6] stands for this setting: Homo sapiens, HEK293; read-out: Cellular IC50 HEK293.

TNKS2, sequence (Q9H2K2 whole entry): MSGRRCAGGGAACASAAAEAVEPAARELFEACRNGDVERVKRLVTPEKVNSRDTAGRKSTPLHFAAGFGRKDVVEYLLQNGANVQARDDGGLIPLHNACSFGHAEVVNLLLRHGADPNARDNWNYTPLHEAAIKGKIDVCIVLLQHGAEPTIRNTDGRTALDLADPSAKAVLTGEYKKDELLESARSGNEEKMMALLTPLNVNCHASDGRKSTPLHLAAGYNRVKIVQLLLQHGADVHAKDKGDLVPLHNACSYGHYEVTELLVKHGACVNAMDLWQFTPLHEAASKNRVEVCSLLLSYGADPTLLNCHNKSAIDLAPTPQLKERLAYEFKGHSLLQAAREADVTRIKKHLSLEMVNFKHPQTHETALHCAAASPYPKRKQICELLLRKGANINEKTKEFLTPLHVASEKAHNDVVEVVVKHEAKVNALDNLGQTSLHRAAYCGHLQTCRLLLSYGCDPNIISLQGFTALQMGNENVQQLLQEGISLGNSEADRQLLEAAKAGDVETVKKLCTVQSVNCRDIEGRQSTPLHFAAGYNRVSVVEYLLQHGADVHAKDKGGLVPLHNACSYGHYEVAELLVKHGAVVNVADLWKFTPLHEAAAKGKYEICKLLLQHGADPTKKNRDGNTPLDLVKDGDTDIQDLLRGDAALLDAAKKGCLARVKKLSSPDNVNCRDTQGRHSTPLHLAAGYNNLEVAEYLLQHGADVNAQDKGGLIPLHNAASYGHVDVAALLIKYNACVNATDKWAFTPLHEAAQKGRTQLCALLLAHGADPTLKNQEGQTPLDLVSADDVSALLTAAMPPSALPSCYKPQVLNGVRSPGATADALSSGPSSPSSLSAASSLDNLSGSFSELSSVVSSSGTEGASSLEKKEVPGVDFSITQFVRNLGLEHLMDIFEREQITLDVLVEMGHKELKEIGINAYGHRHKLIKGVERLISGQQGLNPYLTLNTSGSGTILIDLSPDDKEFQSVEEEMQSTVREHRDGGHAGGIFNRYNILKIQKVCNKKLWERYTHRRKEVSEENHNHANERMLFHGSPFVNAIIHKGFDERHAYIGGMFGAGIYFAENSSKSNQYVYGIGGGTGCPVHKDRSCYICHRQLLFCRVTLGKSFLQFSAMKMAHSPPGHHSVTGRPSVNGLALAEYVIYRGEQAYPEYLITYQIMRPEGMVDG

`CCOc1ccc(-c2nnc([C@H]3C[C@H](NC(=O)c4cccc(C(C)O)n4)C3)n2-c2ccccc2F)nc1` (stereo partly drawn) [Example 128, N-((1R,3r)-3-(5-(5-ethoxypyridin-2-yl)-4-(2-fluorophenyl)-4H-1,2,4-triazol-3-yl)cyclobutyl)-6-(1-hydroxyethyl)picolinamide]: the IC50 in assay [1] (setting [3]) stood at 37 nM; in assay [2] (setting [4]), 230 nM.
For `[2H]C([2H])([2H])C([2H])([2H])Oc1ccc(-c2nnc([C@H]3C[C@H](NC(=O)c4cccc5cccnc45)C3)n2-c2ccccc2F)nc1` [Example 95, N-((1S,3r)-3-(5-(5-(ethoxy-d5)pyridin-2-yl)-4-(2-fluorophenyl)-4H-1,2,4-triazol-3-yl)cyclobutyl)quinoline-8-carboxamide], the IC50 in assay [1] turned out to be 3.5 nM; in assay [2] (setting [4]), 0.48 nM.
In the case of `CC(C)Oc1ccc(-c2nnc([C@H]3C[C@H](NC(=O)c4ccccn4)C3)n2-c2ccccc2F)nc1` [Example 111, N-((1S,3r)-3-(4-(2-fluorophenyl)-5-(5-isopropoxypyridin-2-yl)-4H-1,2,4-triazol-3-yl)cyclobutyl)picolinamide], the results for the IC50 in assay [1] (setting [3]) and in assay [2] (setting [5]) were 12 nM and 110 nM, respectively.
Turning to `O=C(N[C@H]1C[C@H](c2nnc(-c3nccs3)n2-c2ccccc2Cl)C1)c1ccnc2cccnc12` [Example 41, N-((1S,3r)-3-(4-(2-chlorophenyl)-5-(thiazol-2-yl)-4H-1,2,4-triazol-3-yl)cyclobutyl)-1,5-naphthyridine-4-carboxamide], the half-maximal inhibitory concentration (IC50) in assay [1] (setting [3]) came out at 2 nM; in assay [2] (setting [4]), 0.65 nM.
In the case of `O=C(N[C@H]1C[C@H](c2nnc(-c3ccncn3)n2-c2ccccc2Cl)C1)c1cccc2ncccc12` [Example 7, N-((1S,3r)-3-(4-(2-chlorophenyl)-5-(pyrimidin-4-yl)-4H-1,2,4-triazol-3-yl)cyclobutyl)quinoline-5-carboxamide], the values for the IC50 in assay [1] (setting [3]) and in assay [2] (setting [4]) were 350 nM and 750 nM, respectively.
The matching figures for `O=C(N[C@H]1C[C@H](c2nnc(-c3ccccc3)n2-c2ccccc2F)C1)c1ccc2cnccc2n1` [Example 178, N-((1S,3r)-3-(4-(2-fluorophenyl)-5-phenyl-4H-1,2,4-triazol-3-yl)cyclobutyl)-1,6-naphthyridine-2-carboxamide]: 21 nM and 165 nM.
As to `O=C(N[C@H]1C[C@H](c2nnc(-c3ccccc3)n2-c2ccccc2F)C1)c1ccccn1` [Example 174, N-((1S,3r)-3-(4-(2-fluorophenyl)-5-phenyl-4H-1,2,4-triazol-3-yl)cyclobutyl)picolinamide], the 50% inhibitory concentration (IC50) was found to be 216 nM in assay [1] (setting [3]) and 789 nM in assay [2] (setting [5]).
In the same order, the values of `CCOc1ccc(-c2nnc([C@H]3C[C@H](NC(=O)c4ccccn4)C3)n2-c2cccc(Cl)c2)nc1` [Example 140, N-((1r,3r)-3-(4-(3-chlorophenyl)-5-(5-ethoxypyridin-2-yl)-4H-1,2,4-triazol-3-yl)cyclobutyl)picolinamide] are 13 nM and 83 nM.
As for `CCOc1ccc(-c2nnc([C@H]3C[C@H](NC(=O)c4ccnc5cc(F)cnc45)C3)n2-c2ccccn2)nc1` [Example 160, N-((1r,3r)-3-(5-(5-ethoxypyridin-2-yl)-4-(pyridin-2-yl)-4H-1,2,4-triazol-3-yl)cyclobutyl)-7-fluoro-1,5-naphthyridine-4-carboxamide], the IC50 in assay [1] (setting [3]) was 22 nM; in assay [2] (setting [5]), 9 nM.
In the case of `O=C(N[C@H]1C[C@H](c2nnc(-c3ccccc3)n2-c2ccccc2F)C1)c1ccnc2cc(F)cnc12` [Example 177, 7-fluoro-N-((1S,3r)-3-(4-(2-fluorophenyl)-5-phenyl-4H-1,2,4-triazol-3-yl)cyclobutyl)-1,5-naphthyridine-4-carboxamide], the IC50 in assay [1] (setting [3]) worked out at 3.8 nM; in assay [2] (setting [4]), 25 nM.
In the same order, the values of `CCOc1ccc(-c2nnc([C@H]3C[C@H](NC(=O)c4ccccc4)C3)n2-c2ccccc2F)nc1` [Example 52, N-((1S,3r)-3-(5-(5-ethoxypyridin-2-yl)-4-(2-fluorophenyl)-4H-1,2,4-triazol-3-yl)cyclobutyl)benzamide] are 9.5 nM and 73 nM.
Regarding `CCOc1ccc(-c2nnc([C@H]3C[C@H](NC(=O)c4cccc5cn[nH]c45)C3)n2-c2ccccc2F)nc1` [Example 156, N-((1S,3r)-3-(5-(5-ethoxypyridin-2-yl)-4-(2-fluorophenyl)-4H-1,2,4-triazol-3-yl)cyclobutyl)-1H-indazole-7-carboxamide], the results for the IC50 in assay [1] (setting [3]) and in assay [2] (setting [4]) were 21 nM and 67 nM, respectively.
Turning to `CCOc1ccc(-c2nnc([C@H]3C[C@H](NC(=O)c4cccc(C(C)(C)O)n4)C3)n2-c2ccccc2F)nc1` [Example 129, N-((1S,3r)-3-(5-(5-ethoxypyridin-2-yl)-4-(2-fluorophenyl)-4H-1,2,4-triazol-3-yl)cyclobutyl)-6-(2-hydroxypropan-2-yl) picolinamide], the IC50 came out at 210 nM in assay [1] (setting [3]) and 649 nM in assay [2] (setting [4]).
As for `CCOc1ccc(-c2nnc([C@H]3C[C@H](NC(=O)c4cccc(C(F)(F)F)n4)C3)n2-c2ccccc2F)nc1` [Example 125, N-((1S,3r)-3-(5-(5-ethoxypyridin-2-yl)-4-(2-fluorophenyl)-4H-1,2,4-triazol-3-yl)cyclobutyl)-6-(trifluoromethyl)picolinamide], the IC50 turned out to be 28 nM in assay [1] (setting [3]) and 70 nM in assay [2] (setting [4]).
For `CCOc1ccc(C(=O)N[C@H]2C[C@H](c3nnc(-c4nccs4)n3-c3ccccc3F)C2)nc1` [Example 30, 5-ethoxy-N-((1S,3r)-3-(4-(2-fluorophenyl)-5-(thiazol-2-yl)-4H-1,2,4-triazol-3-yl)cyclobutyl)picolinamide], the IC50 in assay [1] (setting [3]) amounted to 2 nM; in assay [2] (setting [4]) it was 16 nM.
With `O=C(N[C@H]1C[C@H](c2nnc(-c3nccs3)n2-c2ccccc2)C1)c1ccccn1` [Example 32, N-((1r,3r)-3-(4-phenyl-5-(thiazol-2-yl)-4H-1,2,4-triazol-3-yl)cyclobutyl)picolinamide], the IC50 in assay [1] (setting [3]) came out at 49 nM; in assay [2] (setting [4]) it was 229 nM.
Take `O=C(N[C@H]1C[C@H](c2nnc(-c3ccccn3)n2-c2ccccc2F)C1)c1ccnc2cc(F)cnc12` [Example 191, 7-fluoro-N-((1S,3r)-3-(4-(2-fluorophenyl)-5-(pyridin-2-yl)-4H-1,2,4-triazol-3-yl)cyclobutyl)-1,5-naphthyridine-4-carboxamide]: the concentration for half-maximal inhibition (IC50) in assay [1] (setting [3]) was 1.8 nM; in assay [2] (setting [6]), 3.4 nM.
Take `O=C(N[C@H]1C[C@H](c2nnc(-c3ccc(OC4CC4)cn3)n2-c2ccccc2F)C1)c1ccccn1` [Example 106, N-((1S,3r)-3-(5-(5-cyclopropoxypyridin-2-yl)-4-(2-fluorophenyl)-4H-1,2,4-triazol-3-yl)cyclobutyl)picolinamide]: the IC50 in assay [1] (setting [3]) was found to be 8.6 nM; in assay [2] (setting [5]), 49 nM.
Turning to `[2H]C([2H])([2H])C([2H])([2H])Oc1ccc(-c2nnc([C@H]3C[C@H](NC(=O)c4ccnc5cc(F)cnc45)C3)n2-c2ccccc2F)nc1` [Example 94, N-((1S,3r)-3-(5-(5-(ethoxy-d5)pyridin-2-yl)-4-(2-fluorophenyl)-4H-1,2,4-triazol-3-yl)cyclobutyl)-7-fluoro-1,5-naphthyridine-4-carboxamide], the values for the IC50 in assay [1] and in assay [2] (setting [6]) were 2.7 nM and 0.45 nM, respectively.
As for `CCOc1ccc(-c2nnc([C@H]3C[C@H](NC(=O)c4ccc5cccnc5n4)C3)n2-c2ccccc2F)nc1` [Example 147, N-((1S,3r)-3-(5-(5-ethoxypyridin-2-yl)-4-(2-fluorophenyl)-4H-1,2,4-triazol-3-yl)cyclobutyl)-1,8-naphthyridine-2-carboxamide], the IC50 in assay [1] (setting [3]) was determined as 19 nM; in assay [2] (setting [4]), 78 nM.
As to `CCOc1ccc(-c2nnc([C@H]3C[C@H](NC(=O)c4ccc(F)cc4)C3)n2-c2ccccc2)nc1` [Example 70, N-((1r,3r)-3-(5-(5-ethoxypyridin-2-yl)-4-phenyl-4H-1,2,4-triazol-3-yl)cyclobutyl)-4-fluorobenzamide], the figures for the IC50 in assay [1] (setting [3]) and in assay [2] (setting [4]) were 8.5 nM and 48 nM, respectively.
`O=C(N[C@H]1C[C@H](c2nnc(-c3nccs3)n2-c2ccncc2)C1)c1cccc2cccnc12` [Example 146, N-((1r,3r)-3-(4-(pyridin-4-yl)-5-(thiazol-2-yl)-4H-1,2,4-triazol-3-yl)cyclobutyl)quinoline-8-carboxamide]: the IC50 in assay [1] (setting [3]) was 16 nM; in assay [2] (setting [4]) it was 80 nM.
`CCOc1ccc(-c2nnc(C34CC(NC(=O)c5ccnc6cccnc56)(C3)C4)n2-c2ccncc2)nc1` [Example 172, N-(3-(5-(5-ethoxypyridin-2-yl)-4-(pyridin-4-yl)-4H-1,2,4-triazol-3-yl)bicyclo[1.1.1]pentan-1-yl)-1,5-naphthyridine-4-carboxamide]: the values for the IC50 in assay [1] (setting [3]) and in assay [2] (setting [6]) were 9.4 nM and 43 nM, respectively.
Consider `CCOc1ccc(-c2nnc([C@H]3C[C@H](NC(=O)c4cccc5cccnc45)C3)n2-c2ccc(C)s2)nc1` [Example 83, N-((1r,3r)-3-(5-(5-ethoxypyridin-2-yl)-4-(5-methylthiophen-2-yl)-4H-1,2,4-triazol-3-yl)cyclobutyl)quinoline-8-carboxamide], for which the IC50 turned out to be 2.4 nM in assay [1] (setting [3]) and 1 nM in assay [2] (setting [5]).
Take `CCOc1ccc(-c2nnc(C34CC(NC(=O)c5ccnc6cccnc56)(C3)C4)n2-c2ccccn2)nc1` [Example 122, N-(3-(5-(5-ethoxypyridin-2-yl)-4-(pyridin-2-yl)-4H-1,2,4-triazol-3-yl)bicyclo[1.1.1]pentan-1-yl)-1,5-naphthyridine-4-carboxamide]: the IC50 in assay [1] (setting [3]) turned out to be 13 nM; in assay [2] (setting [6]), 20 nM.
With `CCOc1ccc(-c2nnc([C@H]3C[C@H](NC(=O)c4cc5occc5[nH]4)C3)n2-c2ccccc2F)nc1` [Example 151, N-((1S,3r)-3-(5-(5-ethoxypyridin-2-yl)-4-(2-fluorophenyl)-4H-1,2,4-triazol-3-yl)cyclobutyl)-4H-furo[3,2-13]pyrrole-5-carboxamide], the IC50 in assay [1] (setting [3]) amounted to 14 nM; in assay [2] (setting [4]) it was 35 nM.
